# Test results from patent publication US9724347B2, “1-pyrazolyl-3-(4-((2-anilinopyrimidin-4-yl)oxy)napththalen-1-yl) ureas as P38 MAP knase inhibitors” (Respivert Ltd., priority 2011, dated 2017).
# Assays:
# Balb/c mice = test: LPS-induced neutrophil accumulation in mice; format: in vivo
# Experimental: […] At T=0, mice were placed into an exposure chamber and exposed to LPS (7.0 mL, 0.5 mg/mL solution in PBS) for 30 min). After a further 8 hr the animals were anesthetized, their tracheas cannulated and BALF extracted by infusing and then withdrawing from their lungs 1.0 mL of PBS via the tracheal catheter. Total and differential white cell counts in the BALF samples were measured using a Neubaur haemocytometer. Cytospin smears of the BALF samples were prepared by centrifugation at 200 rpm for 5 min at RT and stained using a DiffQuik stain system (Dade Behring). Cells were counted using oil immersion microscopy. Data for neutrophil numbers in BAL are shown as mean±S.E.M. (standard error of the mean). The percentage inhibition of neutrophil accumulation was calculated for each treatment relative to vehicle treatment.
# GSK3α = GSK3α (Homo sapiens (Human), UniProt P49840); test: Kinase binding, active site-directed competition binding (DiscoverX)
# GSK3α, sequence (P49840 whole entry): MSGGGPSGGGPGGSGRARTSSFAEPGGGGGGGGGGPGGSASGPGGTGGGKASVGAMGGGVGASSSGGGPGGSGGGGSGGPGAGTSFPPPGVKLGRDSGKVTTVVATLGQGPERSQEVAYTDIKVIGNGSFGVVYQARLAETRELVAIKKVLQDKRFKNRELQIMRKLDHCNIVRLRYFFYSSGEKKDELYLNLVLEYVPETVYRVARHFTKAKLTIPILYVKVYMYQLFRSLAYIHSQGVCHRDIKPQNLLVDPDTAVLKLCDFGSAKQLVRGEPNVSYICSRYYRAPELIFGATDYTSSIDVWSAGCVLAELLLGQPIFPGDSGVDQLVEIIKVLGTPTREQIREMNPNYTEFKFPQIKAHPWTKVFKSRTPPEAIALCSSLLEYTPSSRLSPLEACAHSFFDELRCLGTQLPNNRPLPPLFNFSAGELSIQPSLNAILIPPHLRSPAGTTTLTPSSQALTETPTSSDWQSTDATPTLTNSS
# A/J mice = test: Cigarette smoke model; format: in vivo; details: for CXCL1 in BALF, % inhibition / Cell numbers in BALF, Macrophage / Cell numbers in BALF, Macrophage, % inhibition / Cell numbers in BALF, Neutrophil / Cell numbers in BALF, Neutrophil, % inhibition: tobacco smoke
# Experimental: A/J mice (males, 5 weeks old) were exposed to cigarette smoke (4% cigarette smoke, diluted with air) for 30 min/day for 11 days using a Tobacco Smoke Inhalation Experiment System for small animals (Model SIS-CS; Sibata Scientific Technology, Tokyo, Japan). Test substances were administered intra-nasally (35 μL of solution in 50% DMSO/PBS) once daily for 3 days after the final cigarette smoke exposure. At 12 hr after the last dosing, each of the animals was anesthetized, the trachea cannulated and bronchoalveolar lavage fluid (BALF) was collected. The numbers of alveolar macrophages and neutrophils were determined by FACS analysis (EPICS® ALTRA II, Beckman Coulter, Inc., Fullerton, Calif., USA) using anti-mouse MOMA2 antibody (macrophage) or anti-mouse 7/4 antibody (neutrophil). BALF was centrifuged and the supernatant was collected. The level of keratinocyte chemoattractant (KC; CXCL1) in BALF was quantitated using a Quentikine® mouse KC ELISA kit (R&D systems, Inc., Minneapolis, Minn., USA).
# PBMC cells = test: Cell mitosis assay; format: cell-based, human
# Experimental: Peripheral blood mononucleocytes (PBMCs) from healthy subjects were separated from whole blood (Quintiles, London, UK) using a density gradient (Histopaque®-1077, Sigma-Aldrich, Poole, UK). The PBMCs (3 million cells per sample) were subsequently treated with 2% PHA (Sigma-Aldrich, Poole, UK) for 48 hr, followed by a 20 hr exposure to varying concentrations of test compounds. At 2 hr before collection, PBMCs were treated with demecolcine (0.1 μg/mL; Invitrogen, Paisley, UK,) to arrest cells in metaphase. To observe mitotic cells, PBMCs were permeabilised and fixed by adding Intraprep (50 μL; Beckman Coulter, France), and stained with anti-phospho-histone 3 ([…]; #9701; Cell Signalling, Danvers, Mass.) and propidium iodide (1 mg/mL; Sigma-Aldrich, Poole, UK,) as previously described (Muehlbauer P. A. and Schuler M. J., Mutation Research, 2003, 537:117-130). Fluorescence was observed using an ATTUNE flow cytometer (Invitrogen, Paisley, UK), gating for lymphocytes.
# d-U937 cells = test: Cell viability: MTT assay; format: cell-based, human; details: 1 μg/mL
# Procedure, shortened: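 Differentiated U937 cells exposed to compound at 1 or 10 μg/mL final, either 4 h in 5% FCS RPMI1640 or 24 h in 10% FCS RPMI1640. After medium replacement, MTT added 1 h, formazan dissolved in DMSO, A550 read. % viability loss vs 0.5% DMSO vehicle; apparent viability gain shown as negative %.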
# [1] = system: HRV IL-8 release (BEAS2B); test: Rhinovirus-induced IL-8 release in BEAS2B cells; format: cell-based, human; details: at 0.04 μg/mL
# Experimental: Human rhinovirus RV16 was obtained from the American Type Culture Collection (Manassas, Va.). Viral stocks were generated by infecting Hela cells with HRV until 80% of the cells were cytopathic.
# BEAS2B cells were infected with HRV at an MOI of 5 and incubated for 2 hr at 33° C. with gentle shaking for to promote absorption. The cells were then washed with PBS, fresh media added and the cells were incubated for a further 72 hr. The supernatant was collected for assay of IL-8 concentrations using a Duoset ELISA development kit (R&D systems, Minneapolis, Minn.).
# The level of cell surface ICAM-1 expression was determined by cell-based ELISA. At 72 hr after infection, cells were fixed with 4% formaldehyde in PBS. After quenching endogenous peroxidase by adding 0.1% sodium azide and 1% hydrogen peroxide, wells were washed with wash-buffer (0.05% Tween in PBS: PBS-Tween). […] The ICAM-1 signal was detected by adding substrate and reading at 450 nm with a reference wavelength of 655 nm using a spectrophotometer. The wells were then washed with PBS-Tween and total cell numbers in each well were determined by reading absorbance at 595 nm after Crystal Violet staining and elution by 1% SDS solution. The measured OD450-655 readings were corrected for cell number by dividing with the OD595 reading in each well. […]
# HRV16 = HRV16 induced CPE in MRC5 cells; format: cell-based, human rhinovirus; details: at 0.04 μg/mL
# Experimental: The supernatants were aspirated, and then fresh media added followed by incubation for 4 days. Where appropriate, cells were pre-incubated with compound or DMSO for 2 hr, and the compounds and DMSO added again after washout of the virus.
# The percentage inhibition for each well was calculated. The IC50 value was calculated from the concentration-response curve generated by the serial dilutions of the test compounds.
# p38MAPKγ (MAPK12) = p38MAPKγ (MAPK12) (Homo sapiens (Human), UniProt P53778); test: p38 MAPKγ enzyme inhibition (FRET, Z-LYTE); format: biochemical
# p38MAPKγ (MAPK12), sequence (P53778 whole entry): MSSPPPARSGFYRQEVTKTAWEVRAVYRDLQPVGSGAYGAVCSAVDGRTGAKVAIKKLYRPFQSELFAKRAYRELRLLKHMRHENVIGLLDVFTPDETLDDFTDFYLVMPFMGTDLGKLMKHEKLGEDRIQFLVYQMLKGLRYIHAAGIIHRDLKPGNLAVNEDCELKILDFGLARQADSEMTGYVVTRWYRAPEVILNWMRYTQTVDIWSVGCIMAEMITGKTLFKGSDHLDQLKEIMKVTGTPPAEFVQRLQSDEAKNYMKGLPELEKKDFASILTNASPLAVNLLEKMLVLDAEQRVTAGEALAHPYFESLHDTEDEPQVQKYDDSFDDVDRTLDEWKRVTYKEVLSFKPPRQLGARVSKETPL
# Procedure, shortened: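 Z-LYTE FRET kinase format on donor/acceptor-labeled synthetic peptide; protease development 1 hr cleaves only non-phosphorylated peptide. Phosphorylation derived from coumarin/fluorescein emission ratio, low ratio indicating high phosphorylation.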
# [2] = system: ICAM-1 expression in BEAS2B cells; test: Poly I:C-induced ICAM-1 expression in BEAS2B cells; format: cell-based, human; details: Homo sapiens, BEAS-2B, read-out: PolyIC/ICAM1 IC50 (BEAS2B)
# Procedure, shortened: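 BEAS2B human bronchial epithelial cells pre-incubated 2 h with compound, then transfected with 1 μg/mL poly I:C plus Oligofectamine. After 18 h, surface ICAM-1 measured by cell-based ELISA (OD450–655), normalised to crystal violet cell count (OD595). Inhibition calculated against vehicle control.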
# [3] = target: p38 MAPKα isoform (MAPK14) (Homo sapiens (Human), UniProt Q16539); test: p38 MAPKα enzyme inhibition (FRET, Z-LYTE); format: biochemical
# p38 MAPKα isoform (MAPK14), sequence (Q16539 whole entry, canonical isoform): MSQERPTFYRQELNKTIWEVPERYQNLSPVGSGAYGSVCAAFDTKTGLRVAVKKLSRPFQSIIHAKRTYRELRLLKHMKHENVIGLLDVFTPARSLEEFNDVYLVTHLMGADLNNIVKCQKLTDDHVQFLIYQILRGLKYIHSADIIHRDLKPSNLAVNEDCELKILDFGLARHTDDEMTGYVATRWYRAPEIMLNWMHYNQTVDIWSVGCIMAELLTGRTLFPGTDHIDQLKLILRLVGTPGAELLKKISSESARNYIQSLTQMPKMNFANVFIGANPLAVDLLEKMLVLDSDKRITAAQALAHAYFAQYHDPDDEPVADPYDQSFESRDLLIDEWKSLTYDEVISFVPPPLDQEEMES
# GSK 3α enzyme isoform = GSK 3α enzyme isoform (Homo sapiens (Human), UniProt P49840); test: GSK 3α enzyme inhibition (FRET, Z-LYTE); format: biochemical; details: read-out: IC50 Values for Enzyme Inhibition GSK3α
# GSK 3α enzyme isoform, sequence (P49840 whole entry, canonical isoform): as the sequence (P49840 whole entry) above
# Procedure, shortened: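 Human GSK3α (500 ng/mL stock) was preincubated 2 h at RT with compound (stocks 4, 0.4, 0.04 or 0.004 μg/mL), then given FRET peptide (8 μM stock) and ATP (40 μM stock) for 1 h. After 1 h protease development, the coumarin/fluorescein emission ratio gave phosphorylation level.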
structure (smiles),measurement,setting,value
"Cc1ccc(-n2nc(C(C)(C)C)cc2NC(=O)Nc2ccc(Oc3ccnc(Nc4ccccc4)n3)c3ccccc23)cc1 [Example 1, 1-(3-(tert-Butyl)-1-(p-tolyl)-1H-pyrazol-5-yl)-3-(4-(2-(phenylamino)pyrimidin-4-yloxy)naphthalen-1-yl)urea]","Neutrophil numbers in BALF, % inhibition","Balb/c mice; 0.05 mg/mL intra tracheal, pre-dose time 2 hr",18%
same,"Neutrophil numbers in BALF, % inhibition","Balb/c mice; 0.2 mg/mL intra tracheal, pre-dose time 2 hr",48%
same,"Neutrophil numbers in BALF, % inhibition","Balb/c mice; 1.0 mg/mL intra tracheal, pre-dose time 2 hr",77%
same,"Neutrophil numbers in BALF, % inhibition","Balb/c mice; 1.0 mg/mL intra tracheal, pre-dose time 8 hr",48%
same,"Neutrophil numbers in BALF, % inhibition","Balb/c mice; 1.0 mg/mL intra tracheal, pre-dose time 12 hr",4%
same,effect on LPS-induced neutrophil accumulation (in words),Balb/c mice; mice,dose dependent inhibition
same,duration of action,"Balb/c mice; time course experiment, mice",long duration of action
same,inhibition of binding against GSK3α (in words),GSK3α,without significant effect
same,"CXCL1 in BALF, % inhibition",A/J mice; 0.32 μg/mL intra-nasal,0%
same,"Cell numbers in BALF, Macrophage",A/J mice; 0.32 μg/mL intra-nasal,13.3 ± 0.20 ×10^4/mL
same,"Cell numbers in BALF, Macrophage, % inhibition",A/J mice; 0.32 μg/mL intra-nasal,11%
same,"Cell numbers in BALF, Neutrophil",A/J mice; 0.32 μg/mL intra-nasal,12.4 ± 0.32 ×10^4/mL
same,"Cell numbers in BALF, Neutrophil, % inhibition",A/J mice; 0.32 μg/mL intra-nasal,12%
same,"CXCL1 in BALF, % inhibition",A/J mice; 1.6 μg/mL intra-nasal,26%
same,"Cell numbers in BALF, Macrophage",A/J mice; 1.6 μg/mL intra-nasal,11.6 ± 0.42 ×10^4/mL
same,"Cell numbers in BALF, Macrophage, % inhibition",A/J mice; 1.6 μg/mL intra-nasal,28%
same,"Cell numbers in BALF, Neutrophil",A/J mice; 1.6 μg/mL intra-nasal,10.5 ± 0.06 ×10^4/mL
same,"Cell numbers in BALF, Neutrophil, % inhibition",A/J mice; 1.6 μg/mL intra-nasal,29%
same,"CXCL1 in BALF, % inhibition",A/J mice; 8.0 μg/mL intra-nasal,41%
same,"Cell numbers in BALF, Macrophage",A/J mice; 8.0 μg/mL intra-nasal,10.1 ± 0.42 ×10^4/mL
same,"Cell numbers in BALF, Macrophage, % inhibition",A/J mice; 8.0 μg/mL intra-nasal,43%
same,"Cell numbers in BALF, Neutrophil",A/J mice; 8.0 μg/mL intra-nasal,9.1 ± 0.28 ×10^4/mL
same,"Cell numbers in BALF, Neutrophil, % inhibition",A/J mice; 8.0 μg/mL intra-nasal,41%
same,"CXCL1 in BALF, % inhibition",A/J mice; 40 μg/mL intra-nasal,76%
same,"Cell numbers in BALF, Macrophage",A/J mice; 40 μg/mL intra-nasal,7.9 ± 0.20 ×10^4/mL
same,"Cell numbers in BALF, Macrophage, % inhibition",A/J mice; 40 μg/mL intra-nasal,64%
same,"Cell numbers in BALF, Neutrophil",A/J mice; 40 μg/mL intra-nasal,7.9 ± 0.34 ×10^4/mL
same,"Cell numbers in BALF, Neutrophil, % inhibition",A/J mice; 40 μg/mL intra-nasal,52%
same,cigarette smoke induced CXCL1 (KC) production in BALF (in words),A/J mice; mice,inhibited
same,macrophage accumulation in BALF induced by cigarette smoke (in words),A/J mice; mice,dose-dependent inhibition
same,neutrophil accumulation in BALF induced by cigarette smoke (in words),A/J mice; mice,dose-dependent inhibition
same,Mitosis Assay % inhibition in PBMC Cells,PBMC cells; 1 μg/mL,13.7%
same,Mitosis Assay % inhibition in PBMC Cells,PBMC cells; 5 μg/mL,31.3%
same,MTT Assay Cell viability at time point in d-U937 Cells,d-U937 cells; 4 h,"−ve (−ve and +ve indicate the value is below and above respectively, the no significant effect threshold defined as 30% inhibition at 1 μg/mL at the time point indicated)"
same,MTT Assay Cell viability at time point in d-U937 Cells,d-U937 cells; 24 h,"−ve (−ve and +ve indicate the value is below and above respectively, the no significant effect threshold defined as 30% inhibition at 1 μg/mL at the time point indicated)"
"Cc1ccc(-n2nc(C(C)(C)C)cc2NC(=O)Nc2ccc(Oc3ccnc(Nc4ccccc4Cl)n3)c3ccccc23)cc1 [Example 6, 1-(3-(tert-butyl)-1-(p-tolyl)-1H-pyrazol-5-yl)-3-(4-((2-((2-chlorophenyl)amino)pyrimidin-4-yl)oxy)naphthalen-1-yl)urea]",HRV IL-8 (BEAS2B) % inhibition,[1],77%
same,HRV CPE (MRC5) % inhibition,HRV16,46%
same,IC50,p38MAPKγ (MAPK12),> 16200 nM
same,MTT Assay Cell viability at time point in d-U937 Cells,d-U937 cells; 4 h,"−ve (−ve and +ve indicate the value is below and above respectively, the no significant effect threshold defined as 30% inhibition at 1 μg/mL at the time point indicated)"
same,MTT Assay Cell viability at time point in d-U937 Cells,d-U937 cells; 24 h,"−ve (−ve and +ve indicate the value is below and above respectively, the no significant effect threshold defined as 30% inhibition at 1 μg/mL at the time point indicated)"
same,IC50,[2],56 nM
same,IC50,[3],161 nM
same,IC50,GSK 3α enzyme isoform,> 16200 nM
